The values below come from ChEMBL document CHEMBL5727253, “Tricyclic compounds and compositions as kinase inhibitors” (2019).

pIC50: −log10 of the molar value. Several values for one entry are separate records, joined by “and”; a condition that tells them apart may be missing. Equal entries are not always repeated.

In general, pIC50 refers to the IC50 on a negative log10 scale, so that one unit is a factor of ten.

This assay in a line: Biological Assays: The activity of a compound according to the present invention can be assessed by well-known in vitro & in vivo methods. […] CRAF cDNA was subcloned as full length protein, with Y340E and Y341E activating mutations, into a baculovirus expression vector for Sf9 insect cell expression. h14-3-3 zeta cDNA was subcloned into a baculovirus expression vector for SF9 insect cell expression. Sf9 cells co-expressing both proteins were lysed and subjected to immobilized nickel chromatography and eluted with Imidazole. A second column (StrepII binding column) was used and eluted with desthiobiotin. Protein Tags were removed using Prescission enzyme and the protein was further purified using a flowthrough step to remove tags.C-Raf TR refers to a truncated C-Raf protein, a Δ1-324 deletion mutant. C-Raf FL refers to the full-length C-Raf protein.Full length MEK1 with an inactivating K97R ATP binding site mutation is utilized as a RAF substrate. The MEK1 cDNA was subcloned with an N-terminal (his)6 tag into a vector for E. Coli expression. The MEK1 substrate was purified from E. Coli lysate by nickel affinity chromatography followed by anion exchange. The final MEK1 preparation was biotinylated (Pierce EZ-Link Sulfo-NHS-LC-Biotin) and concentrated.Assay Materials: Assay buffer is 50 mM Tris, pH 7.5, 15 mM MgCl2, 0.01% Bovine Serum Albumin (BSA) and 1 mM dithiothreitol (DTT); Stop buffer is 60 mM ethylenediaminetetraacetic acid (EDTA) and 0.01% Tween® 20; b-Raf (V600E), active; biotinylated Mek, kinase dead; Alpha Screen detection kit (available from PerkinElmer™, #6760617R); Anti phospho-MEK1/2 (available from Cell Signaling Technology, Inc. #9121); 384 well low volume assay plates (White Greiner® plates).Assay conditions: b-Raf (V600E) approximately 4 pM; c-Raf approximately 4 nM; biotinylated Mek, kinase dead approximately 10 nM; ATP 10 μM for BRAF (V600E) and 1 μM for CRAF; Pre-incubation time with compounds 60 minutes at room temperature; Reaction time 1 or 3 hours at room temperature.Assay protocol: Raf and biotinylated Mek (kinase dead) were combined at 2× final concentrations in assay buffer (50 mM Tris, pH 7.5, 15 mM MgCl2, 0.01% BSA and 1 mM DTT) and dispensed […] per well in assay plates (Greiner white 384 well assay plates #781207) containing […] of 40× of a Raf kinase inhibitor test compound diluted in 100% DMSO. The plate was incubated for 60 minutes at room temperature. The Raf kinase activity reaction was started by the addition of […] per well of 2×ATP diluted in assay buffer. After 3 hours (b-Raf(V600E)) or 1 hour (c-Raf). The reactions were stopped and the phosphorylated product was measured using a rabbit anti-p-MEK (Cell Signaling, #9121) antibody and the Alpha Screen IgG (ProteinA) detection Kit (PerkinElmer #6760617R), by the addition of […] to the well of a mixture of the antibody (1:2000 dilution) and detection beads (1:2000 dilution of both beads) in Stop/bead buffer (25 mM EDTA, 50 mM Tris, pH 7.5, 0.01% Tween20). The additions were carried out under dark conditions to protect the detection beads from light. A lid was placed on top of the plate and incubated for 1 hour at room temperature, after which the luminescence was read on a PerkinElmer Envision instrument. Format: biochemical.
For `CC[C@H]1Cc2nnc(-c3cc(NC(=O)c4ccnc(C(C)(F)F)c4)ccc3C)cc2N2CCOC[C@H]12`, the pIC50 was 9.70.
For `CC[C@H]1Cc2nnc(-c3cc(NC(=O)c4ccnc(C(C)(F)F)c4)ccc3C)cc2N2CCOC[C@@H]12`, the pIC50 is 10.00.
The figure for `CC[C@@H]1Cc2nnc(-c3cc(NC(=O)c4ccnc(C(C)(F)F)c4)ccc3C)cc2N2CCOC[C@H]12` is 10.00; for `Cc1ccc(NC(=O)c2ccnc(C(C)(F)F)c2)cc1-c1ccc2c(c1)N1CCOC[C@H]1[C@@](C)(N)C2` it is 9.21.
Consider `Cc1ncc(NC(=O)c2cccc(C(F)(F)F)c2)cc1-c1cnc2c(c1)N1CCOC[C@H]1[C@](F)(CO)C2`, for which the pIC50 is 8.96.
`CNC(=O)C1Cc2ccc(-c3cc(NC(=O)c4ccnc(C(F)(F)F)c4)ccc3C)cc2N2CCOC[C@@H]12` (some centres not stated): the pIC50 is 10.49 and 10.57.
The figure for `Cc1ccc(NC(=O)c2ccnc(C(C)(F)F)c2)cc1-c1ccc2c(c1)N1CCOC[C@@H]1[C@](C)(N)C2` is 10.60; for `CNC(=O)C1Cc2ccc(-c3cc(NC(=O)c4ccnc(C(F)(F)F)c4)ccc3C)cc2N2CCOC[C@H]12` (some centres not stated) it is 10.55 and 10.85.
For `CNC(=O)[C@@H]1Cc2ccc(-c3cc(NC(=O)c4ccnc(C(F)(F)F)c4)ccc3C)cc2N2CCOC[C@H]12`, the pIC50 is 9.89.
Turning to `Cc1ccc(NC(=O)c2ccnc(C(F)(F)F)c2)cc1-c1cnc2c(c1)N1CCOCC1[C@H](CO)C2` (mixture of isomers), the pIC50 was 11.30.
`Cc1ccc(NC(=O)c2ccnc(C(F)(F)F)c2)cc1-c1cnc2c(c1)N1CCOCC1C(CS(C)(=O)=O)C2` (racemic): the negative-log IC50 (pIC50) was 10.42.
Take `Cc1ncc(NC(=O)c2cccc(C(F)(F)F)c2)cc1-c1ccc2c(c1)N1CCOCC1CC2O` (racemic): the pIC50 was 11.00.
